Experimental data from patent US20070059299A1, “S-adenosyl methionine decarboxylase inhibition for the treatment of a herpes simplex virus infection” (Institut National de la Sante et de la Recherche Medicale …, priority 2002, published 2007).
Read-outs that look alike come from different tables or passages of the source.

Assays:
[1] = system: HSV-1 macroplaque strain (MP); assay type: cell-based; conditions: for less syncytia formed than in control infected without MGBG: no pre-treatment, 24 h
Description: HEp2 cells were grown as monolayers in Eagle's minimum essential medium (E-MEM) supplemented or not with 5% heat-inactivated foetal calf serum (FCS) and supplemented with 100 U/ml penicillin and 100 U/ml streptomycin. The cells were maintained at 37° C. under 5% CO2. The HSV-1 macroplaque strain (MP), obtained from B. Jacquemont (Lyon, France), was a gift of B. Roizman (Chicago, Ill., U.S.A.), and was used throughout this study. Viruses were grown in HEp2 cells.
HEp2 cells were grown in 6-well plates (˜10^6 cells/well) and infected just before confluence with a multiplicity of infection (m.o.i.) of 0.5 plaque-forming units (PFU) per cell in E-MEM in absence of FCS, except for some experiments. After adsorption of the virus for 1 h at 33° C. under 5% CO2, the medium containing the virus suspension was removed and the cells were washed with E-MEM, then incubated in E-MEM without FCS at 37° C. for different periods of times until harvest. Times post-infection (p.i.) were calculated from the time of addition of the virus suspension. HEp2 cells were exposed to MGBG treatment for different times. When cells were pre-treated with MGBG prior infection, MGBG was added to cell medium 6 h or 24 h prior infection until harvest. In non pre-treated cells, MGBG was added simultaneously with virus suspension, or 2 h, 4 h or 6 h latter. When cells were treated for more than 24 h, medium was replaced every 24 h with fresh medium containing the same concentration of MGBG.
Accordingly, the effect of inactivation of enzymes involved in polyamine biosynthesis upon HSV-1 infection inhibition was assessed. The HSV-1 MP strain was used throughout this study for its ability to induce the formation of large syncytia from infected cells. Therefore, it was possible to easily and quickly investigate the inhibition of viral replication at the level of syncytia formation.
To investigate the effect of the concentration of MGBG on viral infection, HEp2 cells were infected with 0.5 PFU of HSV-1 per cell in FCS free medium in which 10 μM to 300 μM MGBG was added from the adsorption step of the virus until the end of the experiment. After 24 h of infection, the formation of syncytia was observed, and the number of syncytia was estimated by counting using the optical microscope.
HEp2 cell were pre-treated with MGBG by incubation in FCS free medium containing 10 to 300 μM MGBG 6h to 24 h before infection. Then cells were infected as described above and MGBG was maintained in the medium until the end of the experiment.

[2] = system: acyclovir-susceptible reference strain SC16; test: Antiviral susceptibility testing by ELISA on HEp-2 cells, strain SC16; assay type: cell-based, HSV 1; conditions: HEp-2, read-out: Susceptibility of strain SC16 (concentration causing 50% inhibition of viral replication, IC50), median
Description: (§1) Three HSV 1 reference strains were tested : SC16 (acyclovir-susceptible reference strain; (Hill et al., 1975)), DM21 (acyclovir-resistant reference strain derived from SC16; (Efstathiou et al., 1989)) and TP 2.5 (foscarnet-resistant reference strain derived from SC16; (Larder and Darby, 1985)). Antiviral assays were performed in duplicate on HEp-2 cells seeded in 96 wells microplates. Dilutions of virus and drugs were prepared in E-MEM without FCS. Cells were first treated for 24 hours with MGBG using a series of 6 twofold serial dilutions from 12.5 to 400 μM. Infection was then achieved with 5 tenfold dilutions of cell-associated virus (10^−1 to 10^−5). Each dilution was incubated with a series of 6 concentrations of each antiviral drug (from 12.5 to 400 μM in twofold dilutions for MGBG, from 0.16 to 500 μM in fivefold dilutions for acyclovir and from 31 to 1000 μM in twofold dilutions for foscarnet). […] After incubation at 36° C. with 5% CO2 for 24 hours post-infection, medium was replaced with freshly prepared dilutions of MGBG. Viral multiplication was checked 24 hours afterwards by an ELISA (Morfin et al., 1999), using a rabbit monoclonal anti-HSV 1 antibody (BO 114, Dako) and a protein A peroxidase-conjugated (BioRad). The substrate, 2,2′-azino-di(3-ethyl-benzthiazoline) sulfonic acid (ABTS) diluted in ABTS buffer (Boehringer, Mannheim), was added to each well. After 30 min at room temperature, the plates were briefly agitated and optical densities were read at 405 nm with a multichannel spectrophotomoter (Titertek-Multiskan). Optical density values were used with the Biolise program (Life Sciences International) to calculate the concentration of the drug causing a 50% inhibition of viral replication (IC50) by logistic regression analysis.
(§2) The capacity of MGBG to preclude infection of three HSV-1 acyclovir and/or foscarnet resistant strains was tested. […] The ED values were determined.

[3] = system: acyclovir-resistant reference strain DM21; test: Antiviral susceptibility testing by ELISA on HEp-2 cells, strain DM21; assay type: cell-based, HSV 1; conditions: HEp-2 cells, ELISA; median of at least three assays; drugs diluted in μM; read-out: Susceptibility of strain DM21 (concentration causing 50% inhibition of viral replication, IC50), median
Description: as §1
The capacity of MGBG to preclude infection of three HSV-1 acyclovir and/or foscarnet resistant strains was tested. The reference strains used in this study were the SC16 acyclovir-susceptible reference strain, the DM21 acyclovir-resistant reference strain derived from SC16 and the TP 2.5 foscarnet-resistant reference strain derived from SC16 (Efstathiou et al., 1989; Hill et al., 1975; Larder and Darby, 1985). In each experiment, dose response curves were constructed for […], for acyclovir, and for MGBG. The ED values were determined.

[4] = system: foscarnet-resistant reference strain TP 2.5; test: Antiviral susceptibility testing by ELISA on HEp-2 cells, strain TP 2.5; assay type: cell-based, HSV 1; conditions: median of at least three assays, drugs diluted in μM, read-out: Susceptibility of strain TP2.5 (concentration causing 50% inhibition of viral replication, IC50), median
Description: as §1, §2

HSV = HSV replication in cellulo; assay type: cell-based; conditions: read-out: HSV inhibition in cellulo IC50
Description: as §1

[5] = system: HSV-1 clinical acyclovir or foscarnet resistant isolates

SMILES: CC(C=NNC(=N)N)=NNC(=N)N [MGBG, methylglyoxal bis(guanylhydrazone)]
- size and number of syncytia ([1]; 10 μM MGBG added simultaneously with virus, 0.5 PFU/cell, FCS free, 24 h of infection): the size but not the number of syncytia was reduced
- less syncytia formed than in control infected without MGBG ([1]; 50 μM MGBG added with virus, 0.5 PFU/cell, FCS free): 50%
- viral replication (syncytia) ([1]; 100 μM MGBG added 2 h after the beginning of infection): totally inhibited
- viral replication (syncytia) ([1]; 100 μM MGBG added 4 h or 6 h after the adsorption step): partially inhibited
- less syncytia formed than in control infected without MGBG ([1]; 100 μM MGBG added with virus, 0.5 PFU/cell, FCS free): 95%
- viral infection compared to cells infected without MGBG ([1]; 100 μM MGBG alone added simultaneously with viral suspension): strongly reduced
- less syncytia formed than in control infected without MGBG ([1]; 200 μM MGBG added with virus, 0.5 PFU/cell, FCS free): about 99%
- inhibition of viral infection in cells grown with 5% FCS compared with FCS free medium ([1]; 5% FCS, different concentrations of MGBG): significantly less efficient
- antiviral effect of MGBG and ACV in combination versus alone (syncytia formation) ([1]; HEp2 cells, 0.5 PFU of HSV-1 per cell): potentiates the antiviral effect of ACV
- HSV-1 infection of HEp2 cells in the presence of MGBG ([1]; MGBG at micromolar concentration): inhibited
- inhibition of viral infection ([1]; cells pre-treated for 6 and 24 h with at least 25 μM MGBG): more than 80%
- syncytia formed compared to cells infected in the absence of MGBG ([1]; cells pre-treated for 6 h with 10 μM MGBG, FCS free): 70%
- syncytia formed compared to cells infected in the absence of MGBG ([1]; cells pre-treated for 24 h with 10 μM MGBG, FCS free): 36%
- IC50 [2]: 103 µM
- IC50 [3]: 75 µM
- IC50 [4]: 82 µM
- IC50 (HSV): 44 µM
- replication of HSV-1 clinical acyclovir or foscarnet resistant isolates [5]: inhibited replication
